Measured values from paper PMC4635352, “Preventive effect of oral goshajinkigan on chronic oxaliplatin-induced hypoesthesia in rats” (Scientific Reports, 2015).

Tests used:
[1] = system: oxaliplatin-treated rats; assay: acetone test for cold hyperalgesia in oxaliplatin-treated rats; format: in vivo, rat; settings: oxaliplatin 4 mg/kg i.p. twice weekly; 4, 6 and 8 wks; vs naïve control
Experimental: (§1) To establish the oxaliplatin-induced chronic neuropathy rat model, oxaliplatin (4 mg/mL/kg) or its vehicle (5% glucose solution) was injected intraperitoneally twice weekly for 8 wks. Rats were orally administered GJG (0.3 or 1.0 g/10 mL/kg) or DW 5 times a week for 8 wks.
(§2) Cold hyperalgesia induced by oxaliplatin was assessed by an acetone test[10]. The acetone test was done on days 24, 38 and 52. Briefly, 250 μL of acetone (Wako Pure Chemical Ltd., Osaka, Japan) was sprayed onto the plantar skin of the right hind paw, and the time spent in elevation and licking of the stimulated hind paw for 60 seconds was measured. Acetone was applied twice at a 15-minute interval, and the average withdrawal response time was calculated. A hot plate test was performed for assessment of thermal hyperalgesia on days 25, 39 and 54. Rats were placed in a Hot/Cold Plate Analgesia Meter (MK-350HC; Muromachi Kikai Co., Ltd., Tokyo, Japan) that kept the temperature of the plate at 50 °C. A cut-off time of 45 seconds was set to prevent tissue damage. The latency of withdrawal response, such as licking and flinching of each hind paw, was recorded.

[2] = system: oxaliplatin-treated rats; assay: hot plate test for heat hypoalgesia in oxaliplatin-treated rats; format: in vivo, rat
Experimental: as §1, §2

[3] = system: oxaliplatin-treated rats; assay: rotarod test of motor coordination; format: in vivo, rat; settings: 8 wks; among the tested groups
Experimental: as §1
(§3) A rotarod test was carried out on day 57 to evaluate if chronic treatment of oxaliplatin had any effect on motor coordination. Rats were placed on the rotarod (SN-497; Shinano-Seisakusho Ltd., Tokyo, Japan), which is a horizontal rod 10 cm diameter, with their heads directed against the direction of rotation at 5 rpm. The time that the animal stayed on the rod (up to maximum of 120 seconds) was recorded. A wire hang test was performed for assessment of neuromuscular strength on day 53. Animals were placed on the wire net that was held horizontally. The wire screen was first inclined at 90 ° for 20 seconds, then turned to 180 ° for a further 20 seconds. The latency to fall from the wire net inclined at the respective angles was recorded.

[4] = system: oxaliplatin-treated rats; assay: wire hang test of neuromuscular strength; format: in vivo, rat; settings: wire screen inclined to 90° or 180° for 20 seconds; among groups
Experimental: as §1, §3

[5] = system: rat sciatic nerve; assay: histological analysis of the sciatic nerve (electron microscopy, ratio of degenerated myelinated fibers); format: in vivo; settings: oxaliplatin-treated group; 8 wks; n = 3
Experimental: as §1
The rats were deeply anesthetized with pentobarbital (50 mg/kg), and transcardially perfused with phosphate-buffered saline (pH 7.4), followed by 2.5% phosphate-buffered glutaraldehyde. The sciatic nerves were rapidly dissected, and the samples were kept overnight in the same fixative at 4 °C. The fixed fibers were post-fixed with 1% osmium tetroxide solution for 3 hours, dehydrated in a graded alcohol series, and embedded in Epon815. For light microscopy, semi-thin sections were cut from each block and stained with toluidine blue. The stained sections were observed using a light microscope (BX60, Olympus Corp., Tokyo, Japan). For electron microscopy, ultra-thin sections were cut and stained with uranyl acetate and lead citrate. […] The numbers of normal- and degenerated-myelinated nerve fibers were counted in the area of 0.05 mm^2 (0.01 mm^2 × 5 areas), and the ratio of degenerated nerve fibers was calculated as the percentage of total nerve fibers in each group. In this study, the pathological experts who investigate myelination or demyelination analyzed light and electron microscopy in detail.

[6] = system: oxaliplatin-treated rats; assay: peripheral blood flow by two-dimensional laser speckle Blood Flow Imager; format: in vivo, rat; settings: for peripheral blood flow, Head / peripheral blood flow, Left ear / peripheral blood flow, Left forelimb / peripheral blood flow, Left hindlimb / peripheral blood flow, Right ear / peripheral blood flow, Right forelimb / peripheral blood flow, Right hindlimb / peripheral blood flow, Tail: ratio to naïve rats
Experimental: as §1
Peripheral blood flow was measured using a two-dimensional laser speckle Blood Flow Imager (Omegazone OZ-2; Omegawave, Inc., Tokyo, Japan). Rats were anesthetized with isoflurane for induction and urethane intraperitoneally for maintenance. Body temperature was maintained at 37.5 ± 0.5 °C using a heating pad. Blood pressure and heart rate were concurrently measured by a tail-cuff apparatus (BP-98A-L; Softron, Tokyo, Japan). Peripheral blood flow in the head, ears, forelimbs, hindlimbs and tail of rats was measured at four defined time points (day 3, 10, 26 and 54). Values were analyzed by analysis software (LIA-V210, Softron). Real image and color-coded images were obtained in high-resolution mode (639 × 480 pixels; 2 images/second). The blood flow value in each peripheral site is expressed as mean blood flow in the region of interest (ROI). The ratio of blood flow rate of treated animals to naïve animals was calculated (%).

[7] = platinum concentration in dorsal root ganglia (ICP-MS); format: in vivo, rat; settings: oxaliplatin 4 mg/kg i.p. twice a week; 4 and 8 wks
Experimental: Lumbar L4-L6 DRG were isolated from each group on days 26 and 54 after oxaliplatin treatment. The tissue samples were pretreated by heating in an acid solution, and the tissue platinum concentration was analyzed using an ICP-MS system (Agilent 7700s; Agilent Technologies, Inc., Santa Clara, CA, USA). The lower limit for quantification of platinum in tissue was 2.0 ng.

[8] = system: neuro2A cells; settings: oxaliplatin 30–300 μM, 1 hour
Experimental: Mouse neuroblastoma Neuro2A cells (ATCC-CCL 131) were grown in Dulbecco’s MEM (Life Technologies) containing 10% fetal bovine serum with 100 units/mL penicillin and 100 mg/mL streptomycin (Life Technologies). The cells were maintained at 37 °C in a humidified atmosphere with 5% CO2 and 95% air. For measurement of ROS generation, the cells were seeded at 2.0 × 10^4 cells/well in poly-D-lysine-coated 96-well plates (BD Falcon, Franklin Lakes, NJ, USA). After plating, the cells were maintained in Dulbecco’s MEM (without phenol red or serum, Life Technologies) with 100 units/mL penicillin and 100 mg/mL streptomycin for more than 16 hours until subsequent experiments. Intracellular ROS generation caused by oxaliplatin in neuro2A cells was determined using CM-H2DCFDA. […] The cells were incubated for 30 minutes with 10 μM CM-H2DCFDA at 37 °C, followed by treatment of drugs for 1 hour. Fluorescence intensity was measured using a microplate reader (Infinite M200; Tecan Japan Co., Ltd., Kanagawa, Japan) at 485 nm (excitation) /520 nm (emission).

[9] = set-up: method as in PMID 11223836; settings: rats, 5 mg/kg oxaliplatin intraperitoneally; cited from earlier work
[10] = day 3, L-OHP 4 mg/kg i.p. twice weekly
[11] = day 10, L-OHP 4 mg/kg i.p. twice weekly

With `O=C1[O][Pt]2([NH][C@@H]3CCCC[C@H]3[NH]2)[O]C1=O` [oxaliplatin] the “duration of withdrawal responses to cold stimulation by acetone” value [1] was “significantly increased”, the “latency of withdrawal to heat stimulation (hot plate)” value ([2]; 4 wks after oxaliplatin treatment, among all groups) was “no significant difference” and the “latency of withdrawal to heat stimulation (hot plate)” value ([2]; oxaliplatin vs naïve control, 6 wks (p < 0.05) and 8 wks (p < 0.01)) was “gradually increased”. The “motor coordination (rotarod test)” value [3] was “no significant differences”, the “muscle strength (wire screen hanging test)” value [4] was “no significant differences” and the “ratio of degenerated axons in total myelinated nerve fibers” value [5] was 8.8 ± 2.4%. For the same compound, the “peripheral blood flow, Head” value ([6]; 4 weeks, L-OHP + DW) was 89.9 ± 2.6 %, the “peripheral blood flow, Left ear” value ([6]; 4 weeks, L-OHP + DW) was 95.7 ± 2.9% and the “peripheral blood flow, Left forelimb” value ([6]; 4 weeks, L-OHP + DW) was 87.3 ± 2.8 %. The “peripheral blood flow, Left hindlimb” value ([6]; 4 weeks, L-OHP + DW) was 82.0 ± 4.5 %, the “peripheral blood flow, Right ear” value ([6]; 4 weeks, L-OHP + DW) was 91.2 ± 3.4% and the “peripheral blood flow, Right forelimb” value ([6]; 4 weeks, L-OHP + DW) was 89.0 ± 2.7 %. For the same compound, the “peripheral blood flow, Right hindlimb” value ([6]; 4 weeks, L-OHP + DW) was 88.3 ± 5.1%, the “peripheral blood flow, Tail” value ([6]; 4 weeks, L-OHP + DW) was 100.1 ± 2.2% and the “peripheral blood flow, Head” value ([6]; 8 weeks, L-OHP + DW) was 93.5 ± 3.8%. The “peripheral blood flow, Left ear” value ([6]; 8 weeks, L-OHP + DW) was 91.4 ± 3.2%, the “peripheral blood flow, Left forelimb” value ([6]; 8 weeks, L-OHP + DW) was 97.2 ± 1.5% and the “peripheral blood flow, Left hindlimb” value ([6]; 8 weeks, L-OHP + DW) was 95.7 ± 4.7%. For the same compound, the “peripheral blood flow, Right ear” value ([6]; 8 weeks, L-OHP + DW) was 92.3 ± 4.1%, the “peripheral blood flow, Right forelimb” value ([6]; 8 weeks, L-OHP + DW) was 100.3 ± 2.0% and the “peripheral blood flow, Right hindlimb” value ([6]; 8 weeks, L-OHP + DW) was 102.3 ± 4.4%. For the same compound, the “peripheral blood flow, Tail” value ([6]; 8 weeks, L-OHP + DW) was 96.3 ± 3.3%, the “peripheral blood flow, Head” value [6, 10] was 108.3 ± 2.9% and the “peripheral blood flow, Left ear” value [6, 10] was 104.8 ± 4.3%. The “peripheral blood flow, Left forelimb” value [6, 10] was 97.5 ± 3.1%, the “peripheral blood flow, Left hindlimb” value [6, 10] was 110.2 ± 0.9% and the “peripheral blood flow, Right ear” value [6, 10] was 101.5 ± 5.6%. The “peripheral blood flow, Right forelimb” value [6, 10] was 100.8 ± 1.9%, the “peripheral blood flow, Right hindlimb” value [6, 10] was 114.2 ± 2.1% and the “peripheral blood flow, Tail” value [6, 10] was 98.8 ± 2.5%. The “peripheral blood flow, Head” value [6, 11] was 91.9 ± 4.5%, the “peripheral blood flow, Left ear” value [6, 11] was 85.3 ± 2.2 % and the “peripheral blood flow, Left forelimb” value [6, 11] was 93.1 ± 3.8%. The “peripheral blood flow, Left hindlimb” value [6, 11] was 85.8 ± 5.0%, the “peripheral blood flow, Right ear” value [6, 11] was 87.7 ± 2.0 % and the “peripheral blood flow, Right forelimb” value [6, 11] was 91.4 ± 3.1%. The “peripheral blood flow, Right hindlimb” value [6, 11] was 86.5 ± 6.9%, the “peripheral blood flow, Tail” value [6, 11] was 90.9 ± 3.4% and the “mean blood flow in the fore- and hindlimbs” value ([6]; oxaliplatin, 4 wks) was “significantly decreased”. For the same compound, the “platinum accumulation in the rat DRG” value [7] was “directly correlated with the duration of oxaliplatin treatment”, the “ROS generation in neuro2A cells” value [8] was “increased ROS generation” and the “time for which maximum plasma platinum was maintained” value [9] was 2 h. The “time to maximum plasma concentration of platinum” value [9] was “approximately 90 minutes”.
